The text below walks through data of patent US20250326799A1, “AGENTS INDUCING VASCULARISATION” (Coegin Pharma AB, priority 2022, published 2025).

The test system of test [1] is human coronary smooth muscle cells (HCASMCs). Description: In vitro scratch wound closure, HCASMCs. In kind it is cell-based. As to conditions: for wound closure (scratch wound assay): HCASMCs. How it is done: (§1) The effect of FOL-026 peptide treatment on smooth muscle cell proliferation (FIG. 25a) and apoptosis (FIG. 25c) induced with low-oxygen condition was evaluated with the uptake of BrdU (n=10 per group) and active caspase-3/-7 (n=6-8 per group) separately. H2O2 measurement (FIG. 25b) of smooth muscle cells pre-incubated with FOL-26 peptides after 50 ug/ml oxidized Low-density Lipoprotein (oxLDL) stimulation for 2 hours (n=6-7 per group). Representative images of scratch wound assay in vitro are shown (FIG. 26a) and the ability of wound healing (FIG. 26b) in human coronary smooth muscle cells (HCASMCs) treated with FOL-026 peptides was measured by image J software (n=10 per group). Scale bar=150 um. Data are presented as means±SEM and acquired from 3 to 4 independent replicate tests. *P<0.05, **P<0.01, ***P<0.001, ****P<0.0001 by one-way ANOVA and Dunnett's post-hoc test.
qRT-PCR analysis of NRP-1 mRNA expression in HCASMCs with small interfering RNA transfection for 48 hours (n=4) (FIG. 27a). The assessment of BrdU incorporation (FIG. 27b, n=10-11) and caspase-3/-7 activation (FIG. 27c, n=3-10) in siRNA-NC/siNRP-1-transfected […] treated with indicated concentration of FOL-026 peptide. The wound closure rate (FIG. 28b) of HCASMCs in siRNA-NC and siNRP-1 group stimulated with increasing concentration of FOL-026 peptide was quantified by image J software (n=9-12 per group). Scale bar=150 um. Data are presented as means±SEM and acquired from 3 to 4 independent replicate tests. *P<0.05, **P<0.01, ***P<0.001, ****P<0.0001 by Student's t test for A, two-way ANOVA followed with Sidak's and Dunnett's multiple comparisons test.
The effect of FOL-005 peptide on smooth muscle cell proliferation (FIG. 30a) was determined with BrdU incorporation in peptide-treated human coronary smooth muscle cells (HCASMCs). Scratch wound assay (FIG. 30b) of HCASMCs incubated with FOL-005 peptides for 5 hours was measured by image J software (n=10-12 per group) and representative pictures of smooth muscle cell migration into an in vitro scratch injury were shown (FIG. 30c). Scale bar=150 um.

Test [2] has as its system Human umbilical cord endothelial cells (HUVECs). Description: sFasL-induced apoptosis, caspase 3 and 7 activation, HUVECs. Conditions: 10 nM, 100 nM, 1000 nM. In kind it is cell-based. As to the method:
(§2) Human Umbilical Vein Endothelial Cells (HUVECs) and Human Coronary Artery Smooth Muscle Cells (HCASMCs) were purchased from Thermo Fisher. Cells were grown in Medium 200 containing 2% Low Serum Growth Supplement and Medium 231 with 5% Smooth Muscle Growth Supplement (Invitrogen, CA, USA) respectively with addition of Antibiotic-Antimycotic (1%, Invitrogen, CA, USA). Test polypeptide and sFasL (PeproTech, NJ, USA) were dissolved in the respective complete medium.
(§3) Caspase-Glo 3/7 Assay (Promega, USA) was performed to evaluate cell apoptosis. HUVECs and HCASMCs were seeded into 96-well plates at a density of 3-5×10^3 per well. For additional NRP-1 on cells transfected siRNA, NRP-1 was added 24 hours after transfection and the mixture of Caspase-Glo 3/7 was added 48 hours after polypeptide stimulations. Subsequent steps were performed as manufacturer's instructions using the FOL26 and FOL56 as test compounds. Data were read by Wallac 1420 Victor 2 (Perkin Elmer, USA).

Test [3] has as its system human coronary artery smooth muscle cells (HCASMCs). Description: sFasL-induced apoptosis, caspase 3 and 7 activation, HCASMCs. Format: cell-based. As to conditions: 10 nM, 100 nM, 1000 nM. As to the method: as §2, §3
Test [4] deals with human coronary smooth muscle cells (HCASMCs). Description: Low-oxygen induced apoptosis, active caspase-3/-7, smooth muscle cells. In kind it is cell-based. As to the method:
as §1

Test [5] deals with human umbilical vascular endothelial cells (HUVECs). Kind of test: ROS level (H2O2 measurement) after oxLDL, HUVECs. As to conditions: HUVECs pre-incubated with peptide; 50 ug/ml oxLDL for 2 hours. In kind it is cell-based. As to the method:
The impact of FOL-026 peptide on human umbilical vascular endothelial cells (HUVECs) proliferation (FIG. 18a) and apoptosis (FIG. 18c) induced with low-oxygen condition was determined by BrdU uptake (n=8-9 per group) and active caspase-3/-7 (n=7-10 per group) separately. The ROS level (FIG. 18b) activated by 50 ug/ml oxidized Low-density Lipoprotein (oxLDL) for 2 hours in cells pre-incubated with FOL-026 peptides was assessed using H2O2 measurement (n=4-8 per group). Representative pictures of endothelial migration into an in vitro scratch injury were shown (FIG. 19a) and the wound closure rate (FIG. 19b) in HUVECs stimulated with increasing concentration of FOL-026 peptide was quantified by image J software (n=8-9 per group). Scale bar=150 um. Data are presented as means±SEM and acquired from 3 to 4 independent replicate tests. *P<0.05, **P<0.01, ****P<0.0001 by one-way ANOVA and Dunnett's post-hoc test.

For test [6], the system named is Human umbilical cord endothelial cells (HUVECs). Description: Gene expression by PCR in endothelial cells. In kind it is cell-based.
The nature of test [7]: Vessel density, CD31+ positive area. Conditions: in vivo. As to the method: Quantified measurement of total length (FIG. 20b), total master segments length (FIG. 20c), total branching length (FIG. 20d) and total segments length (FIG. 20e) were performed to evaluate angiogenesis in vitro (n=7 per group for FIG. 29 b-e). The quantification of vessel density was assessed with CD31+ positive area (FIG. 21a, n=13 per group). Western blot analysis of phosphorylated AKT (pAKT-T308), AKT, phosphorylated ERK1/2 (p-ERK1/2) and ERK1/2 in endothelial cells stimulated with FOL-26 peptides for 48 hours (FIG. 21b). Quantification of phosphorylation intensities normalized to respective total expressions (FIG. 21c-d, n=3 per group).

Entries after “also recorded” stand apart in the source; their conditions may differ.

Take VDTYDGDISVVYGLR [FOL-005]: the “wound closure (scratch wound assay)” value in test [1] is given as “accelerate HCASMC wound closure”.
Regarding AEIDSIELSYGIK [FOL56], the “sFasL-induced apoptosis (caspase 3 and 7)” value (shortened to “sFasL-induced apoptosis”) is listed as “reduced sFasL-induced apoptosis; also recorded: capable of inhibiting, or trended towards inhibiting apoptosis” in test [2] and “reduced sFasL-induced apoptosis; also recorded: capable of inhibiting, or trended towards inhibiting apoptosis” in test [3].
With VDTYDGGISVVYGLR [FOL-026], in test [1], the “wound closure (scratch wound assay)” value is recorded as “accelerates wound closure”. The “wound closure after NRP-1 knock-down (Example 11)” value in test [1] (siRNA-NC/siNRP-1-transfected cells, printed as HUVECs, increasing concentration, 5 hours) is given as “positive effect on wound closure”. Besides, in test [4], the “smooth muscle cell apoptosis induced with low-oxygen condition (active caspase-3/-7)” value was “inhibits apoptosis”. For the same sequence, in test [5], the “ROS levels induced by oxLDL (H2O2 measurement)” value is on record as “reduce the amount of ROS levels”. For the same sequence, the “sFasL-induced apoptosis” value in test [2] (listed as FOL26) was “reduced sFasL-induced apoptosis; also recorded: capable of reversing the sFasL-induced apoptosis”. In addition, in test [3] (listed as FOL26), the “sFasL-induced apoptosis” value was “reduced sFasL-induced apoptosis; also recorded: capable of reversing the sFasL-induced apoptosis”. Moreover, the VEGFR-2 gene expression result in test [6] (10 nM) was “reduced”. The TNF-α gene expression result in test [6] (10 nM and 100 nM) was “reduced”. In test [6] (10 nM, 100 nM, 1000 nM tested), the IL-6 gene expression result is given as “no effect”, the MMP3 gene expression result is given as “no effect”, the VEGF-A gene expression entry is “no effect” and the c-Met gene expression result is given as “reducing”. In test [6] (100 nM and 1000 nM), the NRP-1 gene expression entry is “inducing”. The MMP2 gene expression entry in test [6] (200 nM and 1000 nM) is “induced”. For the same sequence, the VEGFR-2 gene expression entry in test [6] (1000 nM) was “induced”. Further, in test [6] (lowest dose (10 nM)), the NRP-1 gene expression entry is recorded as “reducing”. Besides, the “vessel density (CD31+ positive area)” value in test [7] was “increased vessel density”.
